Results on 16 compounds are retold here after patent US8288552B2, “Dihydropyridone amidesas P2X7 modulators” (Roche Palo Alto LLC, priority 2008, dated 2012).

A word on the pKi: it is the negative decadic logarithm of the Ki, by convention in mol/L. Higher therefore signals a low Ki.

This experiment addresses T1, P2X7 (UniProt Q99572).
T1 sequence (Q99572 1-595): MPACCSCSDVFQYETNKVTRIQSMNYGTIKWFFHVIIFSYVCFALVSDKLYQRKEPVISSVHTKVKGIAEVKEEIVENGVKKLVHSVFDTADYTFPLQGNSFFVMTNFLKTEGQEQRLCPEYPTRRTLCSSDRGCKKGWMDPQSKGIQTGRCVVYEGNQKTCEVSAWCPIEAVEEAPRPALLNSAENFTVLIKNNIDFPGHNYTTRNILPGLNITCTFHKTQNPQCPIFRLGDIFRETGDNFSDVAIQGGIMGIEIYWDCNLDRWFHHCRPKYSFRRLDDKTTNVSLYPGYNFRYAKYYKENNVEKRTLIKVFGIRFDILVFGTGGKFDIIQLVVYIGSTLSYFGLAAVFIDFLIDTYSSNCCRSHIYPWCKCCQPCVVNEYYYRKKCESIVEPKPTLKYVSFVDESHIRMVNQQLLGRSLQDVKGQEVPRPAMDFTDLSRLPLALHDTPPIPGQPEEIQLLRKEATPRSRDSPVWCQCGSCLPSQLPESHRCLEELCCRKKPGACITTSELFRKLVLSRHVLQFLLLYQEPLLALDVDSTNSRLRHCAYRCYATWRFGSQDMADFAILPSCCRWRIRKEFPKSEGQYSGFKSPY
In words: P2X7 pKi of Table 1. Format: cell-based. In outline: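 Human P2X7 in 1321N1 cells and rat P2X7 in HEK293 cells, loaded with fluo-3 for 1 hr at 37° C, then exposed to antagonist for 20 min at room temperature. BzATP agonist was used at 100 μM final (human) or 5 μM final (rat), with fluorescence read for 5 min. The response was normalized to maximal fluorescence evoked by 5 μM ionomycin.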
For the compound `CNC(=O)COc1cc(NC(=O)C2=CNC(=O)C[C@H]2c2ccc(F)cc2)c(C)cc1Cl` [Compound 134, (S)-4-(4-Fluoro-phenyl)-6-oxo-1,4,5,6-tetrahydro-pyridine-3-carboxylic acid(4-chloro-2-methyl-5-methylcarbamoylmethoxy-phenyl)-amide], the pKi was found to be 6.24.

As for `Cc1ccc(C(N)=O)cc1NC(=O)C1=CNC(=O)C[C@H]1c1ccc(F)cc1` [Compound 135, (S)-4-(4-Fluoro-phenyl)-6-oxo-1,4,5,6-tetrahydro-pyridine-3-carboxylic acid(5-carbamoyl-2-methyl-phenyl)-amide], the pKi amounted to 5.8767.

For the compound `O=C1CC(c2ccccc2)C(C(=O)NC2CCc3ccccc32)=CN1` (stereo not shown) [Compound 136, 6-Oxo-4-phenyl-1,4,5,6-tetrahydro-pyridine-3-carboxylic acid indan-1-ylamide], the pKi worked out at 5.412.

In turn, `O=C1CC(c2cccc(F)c2)C(C(=O)Nc2cc3c(cc2Cl)OC(F)(F)O3)=CN1` (stereo not shown) [Compound 137, 4-(3-Fluoro-phenyl)-6-oxo-1,4,5,6-tetrahydro-pyridine-3-carboxylic acid(6-chloro-2,2-difluoro-benzo[1,3]dioxol-5-yl)-amide] showed a pKi of 4.98.

`O=C1CC(c2ccc(F)cc2)C(C(=O)Nc2cc3c(cc2Br)OCCO3)=CN1` (stereo not shown) [Compound 138, 4-(4-Fluoro-phenyl)-6-oxo-1,4,5,6-tetrahydro-pyridine-3-carboxylic acid(7-bromo-2,3-dihydro-benzo[1,4]dioxin-6-yl)-amide] came in with a pKi of 6.69.

`O=C1CC(c2ccc(F)cc2)C(C(=O)Nc2cc3c(cc2Cl)OC(F)(F)O3)=CN1` (stereo not shown) [Compound 139, 4-(4-Fluoro-phenyl)-6-oxo-1,4,5,6-tetrahydro-pyridine-3-carboxylic acid(6-chloro-2,2-difluoro-benzo[1,3]dioxol-5-yl)-amide] gave a pKi of 5.46.

`Cc1cc2c(cc1NC(=O)C1=CNC(=O)C[C@H]1c1ccc(F)cc1)OCCO2` [Compound 140, (S)-4-(4-Fluoro-phenyl)-6-oxo-1,4,5,6-tetrahydro-pyridine-3-carboxylic acid(7-methyl-2,3-dihydro-benzo[1,4]dioxin-6-yl)-amide]: the pKi came out at 6.94.

In turn, `Cc1cc(F)c(OCCO)cc1NC(=O)C1=CNC(=O)C[C@H]1c1ccc(F)cc1` [Compound 141, (S)-4-(4-Fluoro-phenyl)-6-oxo-1,4,5,6-tetrahydro-pyridine-3-carboxylic acid[4-fluoro-5-(2-hydroxy-ethoxy)-2-methyl-phenyl]-amide] came in with a pKi of 7.285.

In turn, `Cc1cc(Cl)c(OCCO)cc1NC(=O)C1=CN(C)C(=O)C[C@H]1c1ccc(F)cc1` [Compound 142, (S)-4-(4-Fluoro-phenyl)-1-methyl-6-oxo-1,4,5,6-tetrahydro-pyridine-3-carboxylic acid[4-chloro-5-(2-hydroxy-ethoxy)-2-methyl-phenyl]-amide] yielded a pKi of 6.835.

On to `Cc1cc(F)c(OCCO)cc1NC(=O)C1=CN(C)C(=O)C[C@H]1c1ccc(F)cc1` [Compound 143, (S)-4-(4-Fluoro-phenyl)-1-methyl-6-oxo-1,4,5,6-tetrahydro-pyridine-3-carboxylic acid[4-fluoro-5-(2-hydroxy-ethoxy)-2-methyl-phenyl]-amide], for which the pKi is given as 6.535.

`CCN1C=C(C(=O)Nc2cc(OC)c(OC)cc2C)[C@H](c2ccc(F)cc2)CC1=O` [Compound 144, (S)-1-Ethyl-4-(4-fluoro-phenyl)-6-oxo-1,4,5,6-tetrahydro-pyridine-3-carboxylic acid(4,5-dimethoxy-2-methyl-phenyl)-amide] came in with a pKi of 7.06.

As for `CCOC(=O)Cc1ccc(C)c(NC(=O)C2=CNC(=O)C[C@H]2c2ccc(F)cc2)c1` [Compound 145, (3-{[(S)-4-(4-Fluoro-phenyl)-6-oxo-1,4,5,6-tetrahydro-pyridine-3-carbonyl]-amino}-4-methyl-phenyl)-acetic acid ethyl ester], the pKi is 6.55.

Consider `COc1cc(C)c(NC(=O)C2=CN(CCO)C(=O)C[C@H]2c2ccc(F)cc2)cc1OC` [Compound 146, (S)-4-(4-Fluoro-phenyl)-1-(2-hydroxy-ethyl)-6-oxo-1,4,5,6-tetrahydro-pyridine-3-carboxylic acid(4,5-dimethoxy-2-methyl-phenyl)-amide], for which the pKi is given as 7.71.

In the case of `COC[C@@H](O)COc1cc(NC(=O)C2=CN(C)C(=O)C[C@H]2c2ccc(F)cc2)c(C)cc1Cl` [Compound 147, (S)-4-(4-Fluoro-phenyl)-1-methyl-6-oxo-1,4,5,6-tetrahydro-pyridine-3-carboxylic acid[4-chloro-5-((S)-2-hydroxy-3-methoxy-propoxy)-2-methyl-phenyl]-amide], the pKi came to 5.85.

On to `COC[C@@H](O)COc1cc(NC(=O)C2=CNC(=O)C[C@H]2c2ccc(F)cc2)c(C)cc1Cl` [Compound 148, (S)-4-(4-Fluoro-phenyl)-6-oxo-1,4,5,6-tetrahydro-pyridine-3-carboxylic acid[4-chloro-5-((S)-2-hydroxy-3-methoxy-propoxy)-2-methyl-phenyl]-amide], for which the pKi is recorded as 6.49.

In turn, `COC[C@@H](O)COc1cc(NC(=O)C2=CN(C)C(=O)C[C@H]2c2cccc(F)c2)c(C)cc1Cl` [Compound 149, (S)-4-(3-Fluoro-phenyl)-1-methyl-6-oxo-1,4,5,6-tetrahydro-pyridine-3-carboxylic acid[4-chloro-5-((S)-2-hydroxy-3-methoxy-propoxy)-2-methyl-phenyl]-amide] returned a pKi of 6.035.
